Data from patent US10336746B1, “RAD51 inhibitors” (Cyteir Therapeutics, Inc., priority 2017, dated 2019).
Where two headings read alike, the source gives them in different places.

What was measured:
[1] = test system: KG-1 (Leukemia); test: Cell line screen, KG-1; type: cell-based; conditions: AICDA Expression Negative
Description: (§1) The activity of the claimed compounds was measured in a variety of cell lines with different expression levels of activation induced cytidine deaminase (AICDA). The potency assay was repeated in all of the listed cell lines and the EC50 values recorded.

[2] = Bi-directional Caco-2 permeability; type: in vitro ADME; conditions: human; for efflux ratio at 90 min: Caco-2, read-out: BA/AB Ratio; for Papp A→B at 90 min: Caco-2, apical to basolateral, read-out: AB Papp (cm/sec × 10^6); for Papp A→B at 90 min / Papp B→A at 90 min: 37 C, up to 90 minutes; for Papp B→A at 90 min: Caco-2, basolateral to apical, read-out: BA Papp (cm/sec × 10^6)
Description: Bi-directional Caco-2 permeability was assayed. Caco-2 cells were seeded onto permeable polycarbonate supports and allowed to differentiate for about 3 weeks prior to being used in the assays. The cells were then exposed to the compounds from either the apical or basolateral sides and incubated at 37 C for up to 90 minutes under light agitation. Compound transport was then measured using LC/MS/MS analysis at 30, 60, and 90 minutes.

[3] = test system: Daudi cell line (AID positive); test: Primary screening cell killing assay, Daudi cell line (AID positive); type: cell-based; conditions: Homo sapiens, 168 h, cell death on Day 7, Cell-Titer Glo
Method in brief: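 AID-positive Daudi cells, 1250 per well, were exposed to serially diluted compounds for 7 days at 37° C. Viability read by CellTiter-Glo luminescence; percent cell death and EC50 derived against untreated wells after media-blank subtraction.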

[4] = test system: CCRF-SB (Leukemia); test: Cell line screen, CCRF-SB; type: cell-based; conditions: Homo sapiens, AICDA Expression High
Description: as §1

[5] = Caco-2, Caco-2, AB direction, read-out: AB Recovery %
[6] = Caco-2, Caco-2, BA direction, read-out: BA Recovery %

## CC(C)OC(=O)N[C@H]1CC[C@H](c2ncc(-c3ccc(NC(=O)NCc4ccccc4)cc3S(=O)(=O)NC(C)(C)C)s2)CC1 [Ex. 66A, trans-isopropyl N-[4-[5-[4-(benzylcarbamoylamino)-2-(tert-butylsulfamoyl)phenyl]thiazol-2-yl]cyclohexyl]carbamate]
[1]
  EC50: 3070 nM
[2]; [5]
  recovery at 90 min: 64.9%
[2]; [6]
  recovery at 90 min: 81.2%
[2]
  efflux ratio at 90 min: 1.4
  Papp A→B at 90 min: 2.9 ×10⁻⁶ cm/s
  Papp B→A at 90 min: 3.9 ×10⁻⁶ cm/s
[3]
  EC50: ≤ 100 nM
[4]
  EC50: 183 nM

## CC(C)OC(=O)Nc1ccc(-c2cnc([C@H]3CC[C@H](NC(=O)OC(C)C)CC3)s2)c(S(=O)(=O)NC(C)(C)C)c1 [Ex. 67A, trans-isopropyl N-[3-(tert-butylsulfamoyl)-4-[2-[4-(isopropoxycarbonylamino)cyclohexyl]thiazol-5-yl]phenyl]carbamate]
[1]
  EC50: 3000 nM
[2]; [5]
  recovery at 90 min: 50.7%
[2]; [6]
  recovery at 90 min: 78.6%
[2]
  efflux ratio at 90 min: 0.7
  Papp A→B at 90 min: 10.5 ×10⁻⁶ cm/s
  Papp B→A at 90 min: 6.9 ×10⁻⁶ cm/s
[3]
  EC50: 100 to 1000 nM
[4]
  EC50: 932 nM
